Measurements taken from US20160347807A1, “TARGETING P53 AND ITS DNA-BINDING DOMAIN” (UNIVERSITY OF UTAH RESEARCH DOUNDATION, priority 2014, published 2016).
Entries after “also recorded” stand apart in the source; their conditions may differ.

How the values were obtained:
[1] = system: MDA-MB-231; test: 7-AAD assay in MDA-MB-231 cells; type: cell-based, human; settings: MDA-MB-231, 24 h after transfection
Experimental: (§1) Transfected T47D, MCF-7, MDA-MB-231, HeLa and H1373 cells were pelleted and resuspended in 500 μL PBS (Invitrogen) containing 1 μM 7-aminoactinomycin D (7-AAD) (Invitrogen) for 30 min prior to analysis following the recommended protocol from the manufacturer. The assay was performed 48 h after transfection for T47D, MCF-7 and H1373 and 24 h after transfection for MDA-MB-231 and HeLa. Only EGFP positive cells were analyzed by using the FACS Canto-II (BD-BioSciences) with FACS Diva software. EGFP and 7-AAD were excited with the 488 nm laser, and were detected at 507 nm and 660 nm, respectively. Independent transfections of each construct were tested three times (n=3).

[2] = system: T47D cells; test: Colony forming assay in T47D cells; type: cell-based, human; settings: eight days after treatment
Experimental: Transfected T47D cells were harvested 24 h post transfection and resuspended in RPMI (Invitrogen) at a concentration of 3.0×10^5 cells/mL. The Cytoselect® 96-well cell transformation assay (Cell Biolabs, San Diego, Calif.) was used following manufacturer's recommendations. Equal amount of 1.2% Agar Solution, 2×DMEM/20% FBS media, and cell suspension (1:1:1) were mixed and 75 μL of the mixture was added to a 96-well plate containing a solidified base agar layer (50 μL of previously solidified 1.2% Agar Solution), and allowed to solidify at 4° C. for 15 min. The following steps were performed according to the manufacture's recommendations. A Spectra Max M2 plate reader (Molecular Devices, Sunnyvale, Calif.) was used to detect fluorescence using a 485/520 nm filter set. Independent transfections of each construct were tested three times (n=3).

[3] = system: T47D cells; test: 7-AAD assay in T47D cells; type: cell-based, human; settings: 48 h after transfection, EGFP positive cells only
Experimental: as §1
(§2) Transfected T47D, H1373, SKOV-3 and HeLa cells were pelleted and re-suspended in 500 μL PBS (Invitrogen) containing 1 μM 7-aminoactinomycin D (7-AAD) (Invitrogen) for 30 min prior to analysis. T47D and H1373 cells were analyzed 48 h after transfection, while SKOV-3 and HeLa cells were analyzed 24 h after transfection (time points optimized empirically). Only EGFP positive cells were assayed using the FACS Canto-II (BD-BioSciences) with FACS Diva software as previously. EGFP and 7-AAD were excited at 488 nm, and detected at 507 nm and 660 nm, respectively. Independent transfections of each construct were assayed three times (n=3). The highest value (EGFP positive cells stained with 7-AAD) was set at 100%, and the lowest at 0% (relative 7-AAD) as previously.

[4] = system: HeLa cells; test: 7-AAD assay in HeLa cells; type: cell-based, human; settings: 24 h after transfection
Experimental: as §1, §2

[5] = system: T47D cells; test: Rescue experiment using BFP-Bcl-XL (7-AAD) in T47D cells; type: cell-based, human; settings: 48 h after transfection, Bcl-XL overexpression
Experimental: T47D cells were co-transfected with 1 pmol of EGFP constructs and 1 pmol of BFP-Bcl-XL (BFP tag is necessary for gating Bcl-XL transfected cells). 48 h after transfection the 7-AAD assay was performed as described above. FACSCanto-II (BD-BioSciences) and FACSDiva software were used for EGFP and BFP gating. Excitation was set at 488 nm, and detected at 507 nm and 660 nm for EGFP and 7-AAD, respectively. BFP was excited at 405 nm and detected at 457 nm. Independent transfections of each construct were tested three times (n=3).

[6] = system: H1373 cells; test: 7-AAD assay in H1373 cells; type: cell-based, human; settings: H1373 (p53 null), 48 h after transfection
Experimental: as §1, §2

[7] = system: H1373 cells; test: 7-AAD rescue experiment in H1373 cells with or without p53R248Wmut; type: cell-based, human; settings: H1373, 48 h post transfection; for apoptotic activity (7-AAD) when co-transfected with p53R248Wmut: dominant negative mutant overexpressed
Experimental: E-XL was created by inserting MTS from XL into EGFP-C1 vector. Lipofectamine was used as the transfection reagent as before. 48 h post transfection, cells were stained as described in the 7-AAD assay and gated for EGFP and BFP using the FACSCanto-II (BD-BioSciences) and FACSDiva software. Excitation for BFP was set at 405 nm and detected at 457 nm. The means from three separate experiments (n=3) were analyzed using two-way ANOVA with Bonferroni's post hoc test.

[8] = system: T47D cells; test: Caspase-9 assay (SR FLICA) in T47D cells; type: cell-based, human; settings: 48 h after transfection
Experimental: T47D cells were probed 48 h after transfection using SR FLICA Caspase-9 Assay Kit (Immunochemistry Technologies, Bloomington, Minn.). Cells were incubated with SR FLICA Caspase-9 reagent for 60 min per manufacturer's recommendations, pelleted and resuspended in 300 μL 1× wash buffer (Immunochemistry Technologies). Only EGFP positive cells were analyzed by using the FACS Canto-II (BD-BioSciences) with FACS Diva software. EGFP and FLICA were excited with the 488 nm (emission filter 530/35) and the 561 laser (emission filter 585/15), respectively. Independent transfections of each construct were tested three times (n=3).
As previously described, 48 h after transfection, T47D cells were tested with SR FLICA Caspase-9 Assay Kit (Immunochemistry Technologies, Bloomington, Minn.). Cells were incubated with SR FLICA Caspase-9 reagent for 60 min, pelleted and re-suspended in 300 μL, 1× wash buffer (Immunochemistry Technologies). The FACS Canto-II with FACS Diva software was used to analyzed only EGFP positive cells stained with caspase-9, both were excited with the 488 nm (emission filter 530/35) and the 561 nm laser (emission filter 585/15), respectively. Independent transfections of each construct were assayed three times (n=3). The highest value (EGFP positive cells stained with caspase-9) was set as 100% and the lowest as 0% (relative caspase-9).

[9] = system: T47D cells; test: TUNEL assay in T47D cells; type: cell-based, human; settings: 48 h after transfection
Experimental: T47D cells were harvested 48 h after transfection. In situ Death Detection Kit, TMR red (Roche, Mannheim, Germany) was used following manufacturer's recommendations as before. Cells were resuspended in PBS (Invitrogen) and analyzed via the FACSAria-II (BD-Biosciences, University of Utah Core Facility). EGFP and TMR red were excited at 488 nm and 563 nm, respectively, and FACSDiva software was used to analyze the data. Independent transfections of each construct were tested three times (n=3).

[10] = system: T47D cells; test: Annexin V assay in T47D cells; type: cell-based, human; settings: 48 h after transfection
Experimental: 48 h after transfection, T47D cells were pelleted and resuspended in 400 μL of annexin-V binding buffer (Invitrogen) and incubated with 5 μL of annexin-APC (annexin-V conjugated to allophycocyanin, Invitrogen) for 15 min as before. Only transfected cells were analyzed as mentioned in 7-AAD assay. EGFP and APC were excited at 488 nm and 635 nm wavelengths, respectively and detected at their corresponding 507 nm and 660 nm wavelengths. Independent transfections of each construct were tested three times (n=3).

[11] = system: MCF-7; test: 7-AAD assay in MCF-7 cells; type: cell-based, human; settings: MCF-7, 48 h post transfection
Experimental: as §1

[12] = molecular target: T1, endogenous Bcl-XL (Homo sapiens, UniProt Q07817); test: Co-immunoprecipitation with anti-GFP antibody, western blot for Bcl-XL; type: binding; settings: T47D lysate 24 h post transfection, anti-GFP pull-down
T1 construct: endogenous in cells; host or cells: T47D human breast tumor cells
Experimental: Anti-GFP antibody (ab290, Abcam) was coupled to dynabeads using Dynabeads Antibody Coupling Kit (Invitrogen). 24 h post transfection, T47D cells were prepared using the Dynabeads Co-Immunoprecipitation Kit (Invitrogen). Cell pellets were lysed using extraction buffer B (1×IP, […] NaCl, 2 mM MgCl2, 1 mM DTT, 1% protease inhibitor). The lysate was incubated for 30 min at 4° C. with 1.5 mg of dynabeads coupled with anti-GFP antibody, and co-IP was performed per the company's protocol. The final protein complex was denatured and western blot was performed by using Bcl-XL antibody (ab 2568, Abcam).

“DBD-XL: EGFP, DNA binding domain of p53 and MTS from Bcl-XL” was tested, and the “7-AAD positive cells (late apoptosis)” value [1] was “significantly higher apoptotic activity compared to p53-XL”, the “transformative ability (colonies, relative fluorescence units)” value [2] was “significant decrease in transformative ability” and the “7-AAD positive cells (late apoptosis)” value [3] was “statistically higher than the negative control E-XL; also recorded: not statistically significant from each other”. The “7-AAD positive cells (late apoptosis)” value [4] was “statistically significant from p53-XL”, the “apoptotic activity (7-AAD) on cotransfection of BFP-Bcl-XL (rescue)” value [5] was “significantly reduced” and the “7-AAD positive cells (late apoptosis)” value [6] was “significantly higher apoptotic activity compared to p53-XL”. For the same substance, the “apoptosis (7-AAD) in the absence of p53R248Wmut” value [7] was “significantly higher apoptosis compared to their negative controls E-XL and EGFP”, the “apoptotic activity (7-AAD) when co-transfected with p53R248Wmut” value [7] was “capable of rescuing apoptotic activity” and the caspase-9 activation [8] was “higher caspase-9 activation than E-XL”. The “TUNEL positive cells (DNA fragmentation)” value [9] was “not statistically significant from each other”, the “Annexin V positive cells (apoptotic potential)” value [10] was “significantly higher apoptotic response than p53-XL; also recorded: significantly higher than the negative control E-XL” and the “7-AAD positive cells (late apoptosis)” value [11] was “significantly higher apoptotic activity compared to p53-XL”.

In the case of “p53-XL: full length p53 with EGFP on the amino terminus and the MTS from Bcl-XL (XL) on the C-terminus”, the “transformative ability (colonies, relative fluorescence units)” value [2] is reported as “significant decrease in transformative ability”, the “7-AAD positive cells (late apoptosis)” value [3] is reported as “not statistically significant from each other” and the “apoptotic activity (7-AAD) on cotransfection of BFP-Bcl-XL (rescue)” value [5] is reported as “significantly reduced”. The “apoptosis (7-AAD) in the absence of p53R248Wmut” value [7] was “significantly higher apoptosis compared to their negative controls E-XL and EGFP”, the “apoptotic activity (7-AAD) when co-transfected with p53R248Wmut” value [7] was “capable of rescuing apoptotic activity” and the caspase-9 activation [8] was “higher caspase-9 activation than E-XL; also recorded: triggers caspase-9 activation significantly more than DBD-XL”. For the same substance, the “TUNEL positive cells (DNA fragmentation)” value [9] was “not statistically significant from each other”, the “Annexin V positive cells (apoptotic potential)” value [10] was “significantly higher than the negative control E-XL” and the “co-immunoprecipitation with Bcl-XL” value [12] was “co-immunoprecipitated; also recorded: co-immunoprecipitates with endogenous Bcl-XL”.
